# Data from PMC9732821, “Neurotrophic Activity and Its Modulation by Zinc Ion of a Dimeric Peptide Mimicking the Brain-Derived Neurotrophic Factor N-Terminal Region” (ACS Chemical Neuroscience, 2022).
# Legend:
# [1] = far-UV CD spectra and Zn^2+ titration; format: physicochemical; settings: water, 298 K, pH 7.4, wide minimum around 200 nm
# Experimental: Figure 5 Evaluation of Zn^2+ ion binding on d-bdnf. (A,B) Deconvoluted ESI mass spectra of 10^–6 M d-bdnf solutions incubated in water 2 h, 37 °C in the presence of a 100-fold excess of Zn^2+. 0.1% of formic acid was added (A) or not (B) just before the infusion. (C) Far-UV CD spectra at pH 7.4 for titration with Zn^2+ of d-bdnf (the black curve is the spectrum of peptide; red, green, blue, cyano, and gray are spectra of peptide after the addition of increasing equivalents of metal ions. (D) Spectral changes as a function of zinc addition monitored at λ = 222 nm. [d-bdnf] = 1 × 10^–5 M. (E) Most representative conformation for the BDNF(1–12) dimer coordinating Zn(II) metal ion. Carbon atoms are shown in silver, nitrogen atoms are reported in blue, oxygen atoms in red, sulfur atoms are represented in yellow, and Zn atom is reported in orange. The secondary structure of the peptide is represented in green.
# Far-UV CD spectra were obtained at 298 K under a constant flow of nitrogen by using a Jasco model 810 spectropolarimeter. […]
# Potentiometric titrations were carried out on a Titrando 905 automatic, using a combined glass-Ag/AgCl electrode (Metrohm, Switzerland). […] To avoid systematic errors and verify reproducibility, the EMF values of each experiment were recorded at different time intervals. The data were analyzed by using HYPERQUAD 2003 program 17. […]
# SH-SY5Y cells = assay: RT-PCR gene expression analysis of differentiated SH-SY5Y cells; format: cell-based, human; settings: RT-PCR mRNA, four replicas, two independent experiments
# Text: Figure 4 Neuronal differentiation and polarization genes stimulated by BDNF and d-bdnf mimetic peptide. (A) Schematic timeline of the experiment. As non-differentiated control, we used untreated cells seeded at the same density (non-diff ctrl, white bars). As a control for the expression of neuronal polarization genes, we used cells stopped at d5 (non-pol ctrl). (B) RT-PCR analysis of the mRNA expression levels of neuronal differentiation markers (NTRK2, LAMC1, and NEFM) and polarization markers (GAP43, MAP2, and MAPT) induced by BDNF and d-bdnf with respect to non-diff and non-pol ctrl samples, respectively. Data are expressed as fold changes with respect to the average ctrl value set to 1, and the mean ± SEM of four replicas from two independent experiments are reported (****p < 0.0001, ***p < 0.001, **p < 0.01, and *p < 0.05 according to the one-way ANOVA with Bonferroni’s multiple comparison test).
# Figure 6 Modulation of d-bdnf neurotrophic activity by Zn^2+ ion. (A) Neurite outgrowth assay for d-bdnf-Zn^2+ conjugate. The ctrl and d-bdnf samples are the same as in Figure 2C, here reported as a reference. Data represent the mean ± SD of fields pooled from two independent replicas. (****p < 0.0001, according to the one-way ANOVA with Dunnett’s multiple comparison test). (B) RT-PCR analysis of the mRNA expression levels of the marker genes (as described in Figure 3B). Data are expressed as fold changes with respect to the average ctrl value set to 1, and the mean ± SEM of four replicas from two independent experiments are reported (**p < 0.01, *p < 0.05, vs ctrl; #p < 0.05 vs d-bdnf, according to one-way ANOVA with Bonferroni’s multiple comparison test). […]
# RT-PCR analysis of SH-SY5Y differentiation
# At the end of each differentiation treatment and relative controls, cells were col lected, and total RNA was extracted using the Rneasy Mini Kit (Qiagen). The RNA concentration and purity were checked at the Nanodrop instrument (Thermofisher). cDNA synthesis was performed with 1 µg of RNA using i-Script cDNA synthesis kit (BioRad). Real-time PCR reactions consisted of 10 µL of SsoAdvanced™ Universal SYBR® Green Supermix - Bio-Rad, 0.5 µL of both 10 µM forward and reverse primers, 5 µL of cDNA (50 ng), and 4 µL of H2O. The primer sequences and the product size […]
# HPRT1 and NEFM primers were purchased by Biorad (qHsaCID0016375 and qHsaCED0043021, Bio-Rad). The mRNA levels for each sample were normalized against GAPDH and HPRT1 mRNA levels, and the relative expression was calculated by using the methods of the […]
substance,measurement,setting,value
HSDPARRGELSVC-C-VSLEGRRAPDSH (disulfide) [d-bdnf],conformation by far-UV CD,[1],predominantly a random coil conformation
same,MAPT expression,"SH-SY5Y cells; axon marker, d-bdnf vs BDNF",to a similar extent to BDNF
same,MAP2 expression,"SH-SY5Y cells; dendrite marker, d-bdnf vs BDNF",to a similar extent to BDNF
same,LAMC1 expression,SH-SY5Y cells; d-bdnf vs BDNF,"to promote, to a similar extent of BDNF, the expression of NTRK2 and LAMC1 genes"
same,NTRK2 expression,SH-SY5Y cells; d-bdnf vs BDNF,"to promote, to a similar extent of BDNF, the expression of NTRK2 and LAMC1 genes"
same,GAP43 gene expression,SH-SY5Y cells,not significantly increased by either the d-bdnf doses tested
same,NEFM gene expression,SH-SY5Y cells,significantly increased only at the highest d-bdnf dose (10 μM)
